Literature values, collected in PMC6574176 (Biomaterials, 2019).

Conditions: rapidly bio-eliminated

CC1(C)C(/C=C/C=C/C=C/C=C2\N(CCCCS(=O)(=O)O)c3ccc4ccccc4c3C2(C)C)=[N+](CCCCS(=O)(=O)[O-])c2ccc3ccccc3c21 [free ICG, Indocyanine Green]
t1/2 of free ICG: 2 to 4 min
